Measured values: patent US20200376035A1, “METHODS AND COMPOSITIONS COMPRISING CART AND A SMAC MIMETIC” (THE TRUSTEES OF THE UNIVERSITY OF PENNSYLVANIA, priority 2018, published 2020)
*1 amine or outer side, *2 acyl side, *3 side chain or, on linkers, in order; H or OH if unused. Where a SMILES comes first, the peptide text is derived from it. Bridges are numbered along the chain shown (N, C = ends). Roman numbers before positions name the chains, in order. [ ]: non-standard residue; d: D form. Hexamethylenediamine = C(CCCN[*:2])CCN[*:1]; Dip = N[C@H](C(=O)O)C(c1ccccc1)c1ccccc1; Chg = N[C@H](C(=O)O)C1CCCCC1; NMeA = CN[C@@H](C)C(=O)O

Columns and labels:
[1] = tested on: HER2+ human ovarian cancer cell line (SKOV3); assay: SMAC mimetics with anti-HER2 CAR T (4D5) against SKOV3, luminescence and XCelligence; assay type: cell-based; details: SKOV3 + anti-HER2 CAR T (4D5), 50 nM drug vs DMSO
Method: FIGS. 12A-12B illustrate the synergistic killing of solid tumors using CAR cells in combination with SMAC mimetics. […] E:T ratio=0.01:1, [Drug]=50 nM. 24 h co-culture, A human ovarian cell line expressing endogenous HER2 and luciferase reporter (SKOV3 CBG-T2A-GFP) was seeded at density of 10^4 cells/100 μl of media in each well of 96 well plate and grown overnight. Next day, CAR T cells (4D5; Liu et al. Cancer Research 2015; (75)(17):3596-607, incorporated by reference herein in its entirety) were introduced at E:T ratio=0.01:1 50 nM of SMAC mimetics or corresponding amounts of DMSO. After 48 hours, luciferin was added to the cells and luminescence was detected using a luminometer (Biotek Synergy H4). Tumor killing was calculated using the formula: (sample-tumor treated with DMSO)/(lysis control-tumor treated with DMSO). A human ovarian adenocarcinoma cell line (SKOV3) expressing endogenous HER2 was cultured in the presence or absence of human T cells expressing a chimeric antigen receptor against HER2 at a 1:1 CART:Tumor ratio. Cells were treated with 50 nM of birinapant ([…]), BV6, AZD5582 or corresponding amounts of DMSO. Tumor killing was monitored in real-time using the impedance-based […]@ system (ACEA Biosciences, Inc).

[2] = tested on: CD19+ Luc+ NALM-6 leukemia cell line; assay: High-throughput screen of small molecule library for CART-enhancing compounds (luminescence, 48 hours); assay type: cell-based, human; details: for effect on CART killing activity in the screen: NALM-6 + CART19, 0.3:1 E:T ratio
Method: FIG. 6 illustrates a high-throughput platform to identify CART-enhancing bioactive compounds. The CD19+ Luc+ NALM-6 leukemia cell line was plated at 0.3:1 E:T ratio+/− CART19 using an automated dispenser, Small molecules from a custom-made library (SelleckChem) were then added via an automated workstation and luminescence was detected after 48 hours with a high-throughput plate reader.
FIG. 7 illustrates that birinapant enhances CART cell cytotoxicity. Screening results: total cytotoxicity (%) of small molecules alone (Y axis) or in combination with CART (X axis). Birinapant is represented by the dot at the “40” mark on the X axis (●).
An unbiased, reliable, automated, high-throughput system was generated to test thousands of different combinations of CART and small molecules. […] Subsequently, 2,615 different small molecules were added (1 per well). More than half of these drugs are FDA-approved. After 48 hours, tumor luminescence was recorded and percentage tumor killing was calculated. This platform has already generated several significant hits. See FIG. 7, birinapant in grey, represented by the dot at the “40” mark on the X axis (●). Thus, small molecules enhancing CART killing can be identified.
Birinapant was the only SMAC mimetic in the library.

[3] = tested on: human pre-B ALL cell line (NALM6 CBG-T2A-GFP); assay: CART19 (CTL019) killing of NALM6 with birinapant, luciferase readout after 72 hours; assay type: cell-based; details: NALM6 + CTL019 at different ratios, different doses of birinapant vs DMSO
Method: FIG. 1A is a graph showing the percentage of tumor killing by CART as a result of increasing concentrations of birinapant or corresponding amounts of DMSO as a control. FIG. 1B is a graph showing the percentage of tumor killing by CART as a function of CART:Tumor ratio. For FIGS. 1A-1B, a human pre-B ALL cell line expressing endogenous CD19 and a luciferase reporter (NALM6 CBG-T2A-GFP) was cultured in the presence or absence of human T cells expressing a chimeric antigen receptor against CD19 (CTL019, KYMRIAH®) at different ratios. Cells were treated with different doses of birinapant (TL32711, Medivir) or corresponding amounts of DMSO. After 72 hours luciferin was added to the cells and luminescence was detected using a luminometer (Biotek Synergy H4). Tumor killing was calculated using the formula: (sample−tumor treated with DMSO)/(lysis control−tumor treated with DMSO). […]
A human pre-B ALL cell line expressing endogenous CD19 and a luciferase reporter (NALM6 CBG-T2A-GFP) was cultured in the presence or absence of human T cells expressing a chimeric antigen receptor against CD19 (CTL019, KYMRIAH®) at different ratios. […] After 72 hours luciferin was added to the cells and luminescence was detected using a luminometer (Biotek Synergy H4). Tumor killing was calculated using the formula: (sample−tumor treated with DMSO)/(lysis control−tumor treated with DMSO). […]

[4] = tested on: human ovarian adenocarcinoma cell line (SKOV3); assay: Anti-HER2 CART (CAR 4D5) killing of SKOV3 with birinapant, impedance-based XCelligence; assay type: cell-based; details: SKOV3 + CAR 4D5, 1:1 CART:Tumor ratio, different doses of birinapant vs DMSO, real-time impedance
Method: FIG. 2A is a graph showing the growth and clearance of tumor cells over time. At approximately 21 h (vertical line) tumor cells were treated with only Birinapant (solid lines) or Birinapant and CART cells (dotted lines, 1:1 CART:Tumor ratio). FIG. 2B is analogous to FIG. 2A except for the addition of DMSO instead of Birinapant. FIGS. 2C and 2D summarize the results of FIGS. 2A and 2B, respectively (10 nM Birinapant or DMSO). For FIGS. 2A-2D, a human ovarian adenocarcinoma cell line (SKOV3) expressing endogenous HER2 was cultured in the presence or absence of human T cells expressing a chimeric antigen receptor against HER2 (CAR 4D5) at a 1:1 CART:Tumor ratio, Cells were treated with different doses of birinapant (TL32711, Medivir) or corresponding amounts of DMSO. Tumor killing was monitored in real-time using the impedance-based XCelligence® system (ACEA Biosciences, Inc),
A human ovarian adenocarcinoma cell line (SKOV3) expressing endogenous HER2 was cultured in the presence or absence of human T cells expressing a chimeric antigen receptor against HER2 (CAR 4D5; Liu et al. Cancer Research 2015; (7517):3596-607, incorporated by reference herein in its entirety) at a 1:1 CART:Tumor ratio. […] Tumor killing was monitored in real-time using the impedance-based XCelligence® system (ACEA Biosciences, Inc).

[5] = tested on: human pre-B ALL cell line (NALM6 CBG-T2A-GFP); assay: Birinapant-enhanced CART19 killing of NALM6 with TNF antibodies, 72 hours; assay type: cell-based; details: NALM6 + CTL019, 1 μM birinapant with isotype control or TNF antibodies
Method: (§1) A human pre-B ALL cell line expressing endogenous CD19 and a luciferase reporter (NALM6 CBG-T2A-GFP) was cultured in the presence or absence of human T cells expressing a chimeric antigen receptor against CD19 (CTL019, KYMRIAH®). Cells were either treated with 1 μM of birinapant (TL32711, Medivir), corresponding amounts of DMSO or 1 μM birinapant (TL32711, Medivir) in combination with different amounts of isotype control or TNF antibodies. After 72 hours, luciferin was added to the cells and luminescence was detected using a luminometer (Biotek Synergy H4), Tumor killing was calculated using the formula: (sample−tumor treated with DMSO)/(lysis control−tumor treated with DMSO).
as §1, with “μM” for “μM of”, “and” for “in combination with”, “H4).” for “H4),”

Row | SMILES | CART killing of solid tumor cell lines [1] | effect on CART killing activity in the screen [2] | further results
1 | CN[C@@H](C)C(=O)N[C@H](C(=O)N1CCC[C@H]1C(=O)N[C@H]1c2ccccc2C[C@H]1OCC#CC#CCO[C@@H]1Cc2ccccc2[C@@H]1NC(=O)[C@@H]1CCCN1C(=O)[C@@H](NC(=O)[C@H](C)NC)C1CCCCC1)C1CCCCC1 [AZD5582, (2S,2′S)-N,N′-((S,1′S,2R,2′R)-(hexa-2,4-diyne-1,6-diylbis(oxy))bis(2,3-dihydro-1H-indene-2,1-diyl))bis(1-((S)-2-cyclohexyl-2-((S)-2-(methylamino)propanamido)acetyl)pyrrolidine-2-carboxamide)] | enhance CART killing of solid tumor cell lines |  | 
2 | CN[C@@H](C)C(=O)N[C@H](C(=O)N1CCC[C@H]1C(=O)N[C@H](C(=O)NCCCCCCNC(=O)[C@@H](NC(=O)[C@@H]1CCCN1C(=O)[C@@H](NC(=O)[C@H](C)NC)C1CCCCC1)C(c1ccccc1)c1ccccc1)C(c1ccccc1)c1ccccc1)C1CCCCC1 [BV6, ((S,S,2S,2′S)-N,N′-((2S,2′S)-(hexane-1,6-diylbis(azanediyl))bis(3-oxo-1,1-diphenylpropane-3,2-diyl))bis(1-((S)-2-cyclohexyl-2-((S)-2-(methylamino)propanamido)acetyl)pyrrolidine-2-carboxamide))] (I: H-[NMeA][Chg]P[Dip] / II: H-[NMeA][Chg]P[Dip]; linker I:C-II:C via Hexamethylenediamine) | enhance CART killing of solid tumor cell lines |  | 
3 | CCCCCCCCCCCC1=C(O)C(=O)C=C(O)C1=O [Embelin, 2,5-Dihydroxy-3-undecyl-2,5-cyclohexadiene-1,4-dione] |  | Neither Embelin nor GDC-0152 revealed a significant effect on CART killing activity | 
4 | CN[C@@H](C)C(=O)N[C@H](C(=O)N1CCC[C@H]1C(=O)Nc1snnc1-c1ccccc1)C1CCCCC1 [GDC-0152, (S)-1-((S)-2-cyclohexyl-2-((S)-2-(methylamino)propanamido)acetyl)-N-(4-phenyl-1,2,3-thiadiazol-5-yl)pyrrolidine-2-carboxamide] |  | Neither Embelin nor GDC-0152 revealed a significant effect on CART killing activity | 
5 | CC[C@H](NC(=O)[C@H](C)NC)C(=O)N1C[C@@H](O)C[C@H]1Cc1c(-c2[nH]c3cc(F)ccc3c2C[C@@H]2C[C@H](O)CN2C(=O)[C@H](CC)NC(=O)[C@H](C)NC)[nH]c2cc(F)ccc12 [birinapant, (2S)-N-[(2S)-1-[(2R,4S)-2-[[6-fluoro-2-[6-fluoro-3-[[(2R,4S)-4-hydroxy-1-[(2S)-2-[[(2S)-2-(methylamino)propanoyl]amino]butanoyl]pyrrolidin-2-yl]methyl]-1H-indol-2-yl]-1H-indol-3-yl]methyl]-4-hydroxypyrrolidin-1-yl]-1-oxobutan-2-yl]-2-(methylamino)propanamide] | enhance CART killing of solid tumor cell lines |  | total cytotoxicity (%) of small molecules in combination with CART (X axis) ([2]; FIG. 7, NALM-6 + CART19, 0.3:1 E:T ratio): 40%; CART killing of leukemic cell lines [3]: enhances CART killing of leukemic cell lines; CART killing of solid tumor cell lines [4]: enhances CART killing of solid tumor cell lines; TNF dependence of enhanced CART killing of tumor [5]: birinapant-enhanced CART killing of tumor is TNF-dependent
